Measurements published in patent US20110288052A1, “NOVEL COMPOUNDS, PHARMACEUTICAL COMPOSITIONS CONTAINING SAME, AND METHODS OF USE FOR SAME” (priority 2008, published 2011).
Converted amounts (≈) assume the structure as drawn. Where two headings read alike, the source gives them in different places.

Key:
[1] = system: MCF-7 human breast cancer cells; assay: XTT cytotoxicity assay, MCF-7 (M); format: cell-based; settings: MCF7, MCF-7, 72 hours
Method: XTT Cytotoxicity Assay The XTT assay is a non-radioactive alternative for the [^51Cr] release cytotoxicity assay. XTT is a tetrazolium salt that is reduced to a formazan dye only by metabolically active, viable cells. The reduction of XTT is measured spectrophotometrically as OD490-OD650. To measure the cytotoxicity of specific compounds against cancer cells, 9×10^3 MCF-7 human breast cancer cells (shown in the tables as “(M)”), obtained from the American Type Culture Collection are plated per well in 96 well plates in DMEM medium with 10% fetal bovine serum, insulin, penicillin, and streptomycin. Following overnight culture at 37° C. and 5% CO2, the compounds to be tested, dissolved in DMSO, are added to the wells in 1 μl volume at the following concentrations: 80, 40, 20, 10, 5, 2.5, 1.25, and 0.625 μg/ml in triplicate. Additional concentrations are tested if required. 1 μl of DMSO is added to triplicate wells are the vehicle control. C75 is run at 40, 20, […], and 5 μg/ml in triplicate as positive controls. After 72 hours of incubation, cells are incubated for 4 hours with the XTT reagent as per manufacturer's instructions (Cell Proliferation Kit II (XTT) Roche). Plates are read at OD490 and OD650 on a Molecular Devices SpectraMax Plus Spectrophotometer. Three wells containing the XTT reagent without cells serve as the plate blank. XTT data are reported as OD490-OD650. Averages and standard error of the mean are computed using SOFTmax Pro software (Molecular Dynamics). The IC50 for the compounds is defined as the concentration of drug leading to a 50% reduction in OD490-OD650 compared to controls. The OD490-OD650 are computed by the SOFTmax PRO software (Molecular Devices) for each compound concentration. IC50 is calculated by linear regression, plotting the FAS activity as percent of control versus drug concentrations. Linear regression, best-fit line, r^2, and 95% confidence intervals are determined using Prism Version 3.0 (Graph Pad Software).

[2] = system: OVCAR3 cells; assay: XTT cytotoxicity assay, OVCAR3 (OV); format: cell-based; settings: Homo sapiens
Method: (§1) XTT Cytotoxicity Assay The XTT assay is a non-radioactive alternative for the [^51Cr] release cytotoxicity assay. XTT is a tetrazolium salt that is reduced to a formazan dye only by metabolically active, viable cells. The reduction of XTT is measured spectrophotometrically as OD490-OD650. To measure the cytotoxicity of specific compounds against cancer cells, 9×10^3 MCF-7 human breast cancer cells (shown in the tables as “(M)”), obtained from the American Type Culture Collection are plated per well in 96 well plates in DMEM medium with 10% fetal bovine serum, insulin, penicillin, and streptomycin. Following overnight culture at 37° C. and 5% CO2, the compounds to be tested, dissolved in DMSO, are added to the wells in 1 μl volume at the following concentrations: 80, 40, 20, 10, 5, 2.5, 1.25, and 0.625 μg/ml in triplicate. Additional concentrations are tested if required. 1 μl of DMSO is added to triplicate wells are the vehicle control. C75 is run at 40, 20, […], and 5 μg/ml in triplicate as positive controls. After 72 hours of incubation, cells are incubated for 4 hours with the XTT reagent as per manufacturer's instructions (Cell Proliferation Kit II (XTT) Roche). Plates are read at OD490 and OD650 on a Molecular Devices SpectraMax Plus Spectrophotometer. Three wells containing the XTT reagent without cells serve as the plate blank. XTT data are reported as OD490-OD650. Averages and standard error of the mean are computed using SOFTmax Pro software (Molecular Dynamics). The IC50 for the compounds is defined as the concentration of drug leading to a 50% reduction in OD490-OD650 compared to controls. The OD490-OD650 are computed by the SOFTmax PRO software (Molecular Devices) for each compound concentration. IC50 is calculated by linear regression, plotting the FAS activity as percent of control versus drug concentrations. Linear regression, best-fit line, r^2, and 95% confidence intervals are determined using Prism Version 3.0 (Graph Pad Software). The test was also run against OVCAR3 cells (“OV”), and HCT116 cells (“H”).

[3] = system: HCT116 cells; assay: XTT cytotoxicity assay, HCT116 (H); format: cell-based; settings: Homo sapiens, HCT-116
Method: as §1

[4] = system: MCF-7 human breast cancer cells (fatty acid oxidation pathway activity); assay: Fatty acid oxidation ([14C]palmitate to acid soluble products); format: cell-based
Method: Measurement of Fatty Acid Oxidation and Determination of SC150 of Compounds This assay measures the degradation of [^14C]palmitate into acid soluble products and is a measure of fatty acid oxidation pathway activity in vitro. It is utilized to measure fatty acid oxidation in vitro. MCF-7 human breast cancer cells cultured as above, are plated at 2.5×10^5 cells per well in 24-well plates. Following overnight incubation, the compounds to be tested, solubilized in DMSO, are added at […], 0.39, 1.56, 6.25, 25, and 100 μg/ml in triplicate, with lower concentrations tested if necessary. DMSO is added to triplicate wells for a vehicle control. C75 is run at 5 and 10 μg/ml in triplicate as positive controls. After 1 hour of incubation, medium is removed 100 uM of [^14C] palmitate in cyclodextran and 200 uM carnitine in serum free medium (250 μl volume) is added to each well. After 30 minutes of additional incubation, the reaction is stopped by addition of 2.6N HClO4. Contents of each well are transferred to 1.5 ml Eppendorf tubes and 4N KOH is added. The tubes are incubated for 30 minutes at 60° C. 1 M NaAcetate and 3N H2SO4 is added to each tube and vortexed. The tubes are centrifuged at 1000 rpm for 5 minutes at RT. 250 μl of the supernatant is transferred to a 2 ml eppendorf tube. To each tube is added: 938 μl of chloroform:methanol (1:1), 468 μl chloroform and 281 μl of deionized water. The tubes are vortexed and centrifuged at 1000 rpm for 5 minutes at RT. 750 μl of the upper phase is transferred into a scintillation vial 5 ml of scintillant is added and vials are counted for 1 minute for ^14C. The Beckman Scintillation counter calculates the average cpm values for triplicates. The SC150 for the compounds is defined as the concentration of drug leading to a 150% increase in production of acid soluble products of [^14C] palmitate as compared to untreated controls. This is determined by plotting the average cpm for each inhibitor concentration tested, performing linear regression and computing the best-fit line, r^2 values, and 95% confidence intervals. The average cpm values are computed by the Beckman scintillation counter (Model LS6500) for each compound concentration. Computation of linear regression, best-fit line, r^2, and 95% confidence intervals are calculated using Prism Version 3.0 (Graph Pad Software). If a compound fails to achieve this 150% threshold it is considered negative. The maximum value achieved is also reported (FAO Max).

[5] = Solubility problem noted during the assays; format: physicochemical; settings: read-out: Sol Prob (solubility problem at concentration)
[6] = system: Enterococcus faecalis (ATCC # 29212); assay: Broth microdilution antimicrobial assay, E. faecalis; format: cell-based
Method: Antimicrobial Properties A broth microdilution assay is used to assess the antimicrobial activity of the compounds. Compounds are tested at twofold serial dilutions, and the concentration that inhibits visible growth (OD600 at 10% of control) is defined as the MIC. Microorganisms tested include Staphylococcus aureus (ATCC # 29213), Enterococcus faecalis (ATCC # 29212), Pseudomonas aerpginosa (ATCC # 27853), and Escherichia coli (ATCC # 25922). The assay is performed in two growth media, Mueller Hinton Broth and Trypticase Soy Broth.
A blood (Tsoy/5% sheep blood) agar plate is inoculated from frozen stocks maintained in T soy broth containing 10% glycerol and incubated overnight at 37° C. Colonies are suspended in sterile broth so that the turbidity matches the turbidity of a 0.5 McFarland standard. The inoculum is diluted 1:10 in sterile broth (Mueller Hinton or Trypticase soy) and 195 μl is dispensed per well of a 96-well plate. The compounds to be tested, dissolved in DMSO, are added to the wells in 5 μl volume at the following concentrations: 25, 12.5, 6.25, 3.125, 1.56 and 0.78 μg/ml in duplicate. Additional concentrations are tested if required. 5 μl of DMSO added to duplicate wells are the vehicle control. Serial dilutions of positive control compounds, vancomycin (E. faecalis and S. aureus) and tobramycin (E. coli and P. aerpginosa), are included in each run.
After 24 hours of incubation at 37° C., plates are read at OD600 on a Molecular Devices SpectraMax Plus Spectrophotometer. Average OD600 values are computed using SOFTmax Pro Software (Molecular Devices) and MIC values are determined by linear regression analysis using Prism version 3.02 (Graph Pad Software, San Diego). The MIC is defined as the concentration of compound required to produce an OD600 reading equivalent to 10% of the vehicle control reading.

[7] = system: MCF-7 human breast cancer cells (fatty acid synthesis pathway activity); assay: [14C]acetate incorporation into total lipids; format: cell-based; settings: MCF7, [14C]acetate incorporation into lipids
Method: Measurement of [^14C]acetate Incorporation into Total Lipids and Determination of IC50 of Compounds. This assay measures the incorporation of [^14C]acetate into total lipids and is a measure of fatty acid synthesis pathway activity in vitro. It is utilized to measure inhibition of fatty acid synthesis in vitro.
MCF-7 human breast cancer cells cultured as above, are plated at 5×10^4 cells per well in 24-well plates. Following overnight incubation, the compounds to be tested, solubilized in DMSO, are added at 5, 10, and 20 μg/ml in triplicate, with lower concentrations tested if necessary. DMSO is added to triplicate wells for a vehicle control. C75 is run at 5 and 10 μg/ml in triplicate as positive controls. After 4 hours of incubation, 0.25 μCi of [^14C]acetate (10 μl volume) is added to each well.
After 2 hours of additional incubation, medium is aspirated from the wells and 800 μl of chloroform:methanol (2:1) and 700 μl of 4 mM MgCl2 is added to each well. Contents of each well are transferred to 1.5 Eppendorf tubes, and spun at full-speed for 2 minutes in a high-speed Eppendorf Microcentrifuge 5415D. After removal of the aqueous (upper) layer, an additional 700 μl of chloroform:methanol (2:1) and 500 μl of 4 mM MgCl2 are added to each tube and then centrifuged for 1 minutes as above. The aqueous layer is removed with a Pasteur pipette and discarded. An additional 400 μl of chloroform:methanol (2:1) and 200 μl of 4 mM MgCl2 are added to each tube, then centrifuged and aqueous layer is discarded. The lower (organic) phase is transferred into a scintillation vial and dried at 40° C. under N2 gas. Once dried, 3 ml of scintillant (APB #NBC5104) is added and vials are counted for ^14C. The Beckman Scintillation counter calculates the average cpm values for triplicates.
The IC50 for the compounds is defined as the concentration of drug leading to a 50% reduction in [^14C]acetate incorporation into lipids compared to controls. This is determined by plotting the average cpm for each inhibitor concentration tested, performing linear regression and computing the best-fit line, r^2 values, and 95% confidence intervals. The average cpm values are computed by the Beckman scintillation counter (Model LS6500) for each compound concentration. Computation of linear regression, best-fit line, r^2, and 95% confidence intervals are calculated using Prism Version 3.0 (Graph Pad Software).

| SMILES | IC50 [1] | IC50 ([2]; OVCAR-3) | IC50 [3] | Emax at 1.56 µg/mL ([4]; Homo sapiens, MCF7, at 1.56 μg/ml, read-out: FAO Max) | IC50 ([2]; OVCAR-3, unit given as ml) | Emax at 6.25 µg/mL ([4]; Homo sapiens, MCF7, at 6.25 μg/ml, read-out: FAO Max) | FAO SC 150 ([4]; concentration leading to 150% of control acid soluble products, Neg = threshold not reached) | solubility ([5]; noted under the 14C column, unit inferred) | EF/MH (MIC) ([6]; Mueller Hinton Broth) | EF/Tsoy (MIC) ([6]; Trypticase Soy Broth) | IC50 [7] | solubility [5] |
| --- | --- | --- | --- | --- | --- | --- | --- | --- | --- | --- | --- | --- |
| CCCCCCCCC1(C)SC(=O)C=C1OCC(=O)N1CCN(c2ccc(C(F)(F)F)cc2)CC1 (stereo not shown) | 50.7 µg/mL (≈ 98.9 µM) | > 80 µg/mL | > 80 µg/mL | 118% | – | – | – | – | – | – | – | – |
| CCCCCCCCC1(C)SC(=O)C=C1OCC(=O)Nc1ccc(C(=O)OC)cc1 (stereo not shown) | 6.5 µg/mL (≈ 15 µM) | – | 6.3 µg/mL (≈ 14.5 µM) | – | 12.7 µg/mL (≈ 29.3 µM) | 126% | Neg | 80 µg/mL (≈ 185 µM) | – | – | – | – |
| CCCCCCCCC1(C)SC(=O)C=C1OCC(=O)Nc1ccc(C)cc1 (stereo not shown) | 6.8 µg/mL (≈ 17.5 µM) | 8.1 µg/mL (≈ 20.8 µM) | 12.8 µg/mL (≈ 32.9 µM) | – | – | – | – | – | Neg | Neg | – | – |
| CCCCCCCCC1(C)SC(=O)C=C1OCC(=O)Nc1ccc(C#N)cc1 (stereo not shown) | 3.8 µg/mL (≈ 9.49 µM) | 6.6 µg/mL (≈ 16.5 µM) | 5.3 µg/mL (≈ 13.2 µM) | – | – | – | – | – | – | – | > 80 µg/mL | 80 µg/mL (≈ 200 µM) |
| CCCCCCCCC1(C)SC(=O)C=C1OCC(=O)Nc1ccc(S(N)(=O)=O)cc1 (stereo not shown) | 7 µg/mL (≈ 15.4 µM) | 13.4 µg/mL (≈ 29.5 µM) | 8.7 µg/mL (≈ 19.1 µM) | – | – | – | – | – | – | – | 26.3 µg/mL (≈ 57.9 µM) | 80 µg/mL (≈ 176 µM) |
